Patent publication EP2914280B1, “SOMATOSTATIN-DOPAMINE CHIMERIC ANALOGS” (IPSEN PHARMA S.A.S., priority 2012, dated 2014)

Tests used:
[1] = biological target: T1, hDRD2 (Homo sapiens, UniProt P14416); assay: biochemical; assay type: binding; set-up: expressed in transfected cells; host or cells: CHO-K1, pcDNA3.1/GS, zeocin-selected clonal line; membranes
[2] = biological target: T1, hDRD2; assay: cell-based; set-up: host or cells: 'Cells expressing hDRD2'; settings: for Emax: read-out: hDRD2 %Emax ± SEM
[3] = biological target: T2, hSSTR2 (Homo sapiens, UniProt P30874); assay: Intracellular calcium mobilization assay (FLIPR Calcium 4), hSSTR2; assay type: cell-based;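 also: agonist activity measured in cells expressing hSSTR2, seeded in 384-well plates, loaded with Calcium 4 dye, read-out as rise in intracellular calcium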
T2 construct: host or cells: 'Cells expressing hSSTR2'

[4] = biological target: T2, hSSTR2; assay: Somatostatin receptor radioligand binding assay (hSSTR2);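 also: radioligand displacement on membranes of CHO-K1 cells stably transfected with human SSTR2, specific binding taken as total minus binding left with 1000 nM SRIF-14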
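For Emax in this document: agonist activity at human DRD2 in DRD2-expressing cells, read as intracellular calcium mobilization with a FLIPR Calcium 4 fluorescent dye.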

T2 sequence (P30874 whole entry): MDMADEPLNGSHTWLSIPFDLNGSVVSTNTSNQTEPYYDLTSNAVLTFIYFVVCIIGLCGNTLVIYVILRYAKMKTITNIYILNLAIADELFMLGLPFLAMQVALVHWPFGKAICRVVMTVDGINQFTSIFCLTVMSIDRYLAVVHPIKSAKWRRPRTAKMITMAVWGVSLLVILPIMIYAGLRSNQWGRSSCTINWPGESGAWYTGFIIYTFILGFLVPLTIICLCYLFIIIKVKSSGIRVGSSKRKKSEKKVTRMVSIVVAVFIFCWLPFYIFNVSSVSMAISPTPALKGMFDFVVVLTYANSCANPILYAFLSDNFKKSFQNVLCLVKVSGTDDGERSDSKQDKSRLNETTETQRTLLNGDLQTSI
T1 sequence (P14416 whole entry): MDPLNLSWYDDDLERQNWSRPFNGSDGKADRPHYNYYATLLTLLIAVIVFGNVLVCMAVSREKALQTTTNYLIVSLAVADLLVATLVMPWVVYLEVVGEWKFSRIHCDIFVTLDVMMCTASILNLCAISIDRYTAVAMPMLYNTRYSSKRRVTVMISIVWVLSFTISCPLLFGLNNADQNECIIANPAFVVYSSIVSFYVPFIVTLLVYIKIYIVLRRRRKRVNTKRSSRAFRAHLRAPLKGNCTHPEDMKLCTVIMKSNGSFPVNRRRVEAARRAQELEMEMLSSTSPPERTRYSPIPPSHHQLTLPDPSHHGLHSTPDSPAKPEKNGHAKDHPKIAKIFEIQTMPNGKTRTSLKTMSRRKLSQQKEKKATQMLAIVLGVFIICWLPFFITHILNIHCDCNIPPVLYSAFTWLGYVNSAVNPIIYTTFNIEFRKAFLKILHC

## CC(=O)N(CCCN(C(C)=O)[C@@H]1CCCCNC(=O)[C@H](Cc2ccc(F)cc2)NC(=O)[C@H]([C@@H](C)O)NC(=O)[C@H](CCCCN)NC(=O)[C@@H](Cc2c[nH]c3ccccc23)NC(=O)[C@H](Cc2ccccc2)NC(=O)[C@H](Cc2ccccc2)NC(=O)[C@H](CCCNC(=N)N)NC1=O)C[C@@H]1C[C@@H]2c3cccc4[nH]cc(c34)C[C@H]2N(C)C1 [Compound 28, 3-[N-acetyl-N-(D-6-methyl-8β-ergolinylmethyl)]-aminopropionyl-psi(CH2NAc)-cyclo(DLys-Arg-Phe-Phe-DTrp-Lys-Thr-4FPhe)]
[1]
  Ki: 39.9 ± 10.4 nM
[2]
  EC50: 265 ± 104 nM
  Emax: 56 ± 9.1%
[3]
  EC50: 11.8 ± 7.6 nM
[4]
  Ki: 0.75 ± 0.27 nM

## C[C@@H](O)[C@@H]1NC(=O)[C@H](CCCCN)NC(=O)[C@@H](Cc2c[nH]c3ccccc23)NC(=O)[C@H](Cc2ccccc2)NC(=O)[C@H](Cc2ccccc2)NC(=O)[C@H](CCCNC(=N)N)NC(=O)[C@H](NC[C@H](Cc2ccc(O)cc2)NC(=O)CS(=O)(=O)C[C@@H]2C[C@@H]3c4cccc5[nH]cc(c45)C[C@H]3N(C)C2)CCCCNC(=O)[C@H](Cc2ccc(F)cc2)NC1=O [Compound 19, Dop1(SO2)-Tyr-psi(CH2NH)-cyclo(DLys-Arg-Phe-Phe-DTrp-Lys-Thr-4FPhe)]
[1]
  Ki: > 1000 nM
[2]
  EC50: 701 ± 220 nM
  Emax: 90.7 ± 5.7%
[3]
  EC50: 4.3 ± 1.2 nM
[4]
  Ki: 0.16 ± 0.12 nM

## C[C@@H](O)[C@@H]1NC(=O)[C@H](CCCCN)NC(=O)[C@@H](Cc2c[nH]c3ccccc23)NC(=O)[C@H](Cc2ccccc2)NC(=O)[C@H](Cc2ccccc2)NC(=O)[C@H](CCCNC(=N)N)NC(=O)[C@H](NCCCC[C@@H]2C[C@@H]3c4cccc5[nH]cc(c45)C[C@H]3N(C)C2)CCCCNC(=O)[C@H](Cc2ccc(F)cc2)NC1=O [Compound 2, (D-6-methyl-8β-ergolinyl)-butanoyl-psi(CH2NH)-cyclo(DLys-Arg-Phe-Phe-DTrp-Lys-Thr-4FPhe)]
[1]
  Ki: 6.9 ± 0.4 nM
[2]
  EC50: 55.7 ± 12.4 nM
  Emax: 84 ± 7.6%
[3]
  EC50: 21.1 ± 6.7 nM
[4]
  Ki: 0.79 ± 0.06 nM

## C[C@@H](O)[C@@H]1NC(=O)[C@H](CCCCN)NC(=O)[C@@H](Cc2c[nH]c3ccccc23)NC(=O)[C@H](Cc2ccncc2)NC(=O)[C@H](Cc2ccccc2)NC(=O)[C@H](CCCNC(=N)N)NC(=O)[C@H](NC[C@H](Cc2ccc(O)cc2)NC(=O)CS(=O)(=O)C[C@@H]2C[C@@H]3c4cccc5[nH]cc(c45)C[C@H]3N(C)C2)CCCCNC(=O)[C@H](Cc2ccccc2)NC1=O [Compound 21, Dop1(SO2)-Tyr-psi(CH2NH)-cyclo(DLys-Arg-Phe-4Pal-DTrp-Lys-Thr-Phe)]
[1]
  Ki: > 1000 nM
[2]
  EC50: 208 ± 26.8 nM
  Emax: 92.1 ± 0.2%
[3]
  EC50: 0.9 ± 0.1 nM
[4]
  Ki: 0.02 ± 0.01 nM

## C[C@@H](O)[C@@H]1NC(=O)[C@H](CCCCN)NC(=O)[C@@H](Cc2c[nH]c3ccccc23)NC(=O)[C@H](Cc2ccccc2)NC(=O)[C@H](Cc2ccccc2)NC(=O)[C@H](CCCNC(=N)N)NC(=O)[C@H](NCCSC[C@@H]2C[C@@H]3c4cccc5[nH]cc(c45)C[C@H]3N(C)C2)CCCCNC(=O)[C@H](Cc2cc(F)cc(F)c2)NC1=O [Compound 6B, Dop1-psi(CH2NH)-cyclo(DLys-Arg-Phe-Phe-DTrp-Lys-Thr-3,5FPhe)]
[1]
  Ki: 25.4 ± 7.9 nM
[2]
  EC50: 112 ± 27.8 nM
  Emax: 85.1 ± 9.6%
[3]
  EC50: 17 ± 6.5 nM
[4]
  Ki: 0.25 ± 0.03 nM

## C[C@@H](O)[C@@H]1NC(=O)[C@H](CCCCN)NC(=O)[C@@H](Cc2c[nH]c3ccccc23)NC(=O)[C@H](Cc2ccccc2)NC(=O)[C@H](Cc2ccccc2)NC(=O)[C@H](CCCNC(=N)N)NC(=O)[C@H](NCCSC[C@@H]2C[C@@H]3c4cccc5[nH]cc(c45)C[C@H]3N(C)C2)CCCCNC(=O)[C@H](Cc2ccc(F)c(F)c2)NC1=O [Compound 6A, Dop1-psi(CH2NH)-cyclo(DLys-Arg-Phe-Phe-DTrp-Lys-Thr-3,4FPhe)]
[1]
  Ki: 16.9 ± 0.2 nM
[2]
  EC50: 62.1 ± 16.4 nM
  Emax: 91.5 ± 3%
[3]
  EC50: 15.7 ± 4.3 nM
[4]
  Ki: 0.35 nM

## C[C@@H](O)[C@@H]1NC(=O)[C@H](CCCCN)NC(=O)[C@@H](Cc2c[nH]c3ccccc23)NC(=O)[C@H](Cc2ccccc2)NC(=O)[C@H](Cc2ccccc2)NC(=O)[C@H](CCCNC(=N)N)NC(=O)[C@H](NCCSC[C@@H]2C[C@@H]3c4cccc5[nH]cc(c45)C[C@H]3N(C)C2)CCCCNC(=O)[C@H](Cc2ccccc2F)NC1=O [Compound 6D, Dop1-psi(CH2NH)-cyclo(DLys-Arg-Phe-Phe-DTrp-Lys-Thr-2FPhe)]
[1]
  Ki: 31.8 ± 11.8 nM
[2]
  EC50: 64.5 ± 20.5 nM
  Emax: 101 ± 2.7%
[3]
  EC50: 25 ± 7.7 nM
[4]
  Ki: 0.54 ± 0.12 nM
